For data set [1] the following is noted: background statement on Taxol; cited from earlier work.
Another data set relates to KB cells. Kind of data set: Cancer cell proliferation activities, growth inhibition of KB cells (XTT assay). As to conditions: Homo sapiens, 72 h. It is filed as cell-based. On the procedure:
Cancer Cell Proliferation Activities
As KB cells derived from a human mouth cancer, those purchased from Dainippon Pharmaceutical Co., Ltd. and stored in a lyophilized from at the Research Institute of that company was used. In Dulbecco's modified Eargle's medium containing 10% fetal bovine serum (product of NISSUI PHARMACEUTICAL CO., LTD.), the KB cells were cultured and maintained under the conditions of 5%, CO2 -air and 37° C.
Each compound was used by dissolving it at a concentration of 10 mg/ml in DMSO.
On Day-1, cells which were in a logarithmic growth phase were inoculated at 2,000 cells/100 μl/well on 96-well microtiter plates (Falcon #3072) by using a phenol-red-free culture medium with 10% fetal bovine serum contained therein (Dulbecco's modified Eargle's medium (Sigma)), and were cultured overnight. On Day 0, the compounds each of which had been diluted to 0.03 to 10,000 ng/ml with the same culture medium were added in 100 μl aliquots to the individual wells, and the cells were cultured for 3 days. Three wells were used per each drug concentration. Each plate was provided with three blank wells containing only the culture medium and also with eight wells as a drug-untreated control.
Upon use, XTT (Sigma) was dissolved at a concentration of 1 mg/ml in each culture medium which was free of serum. Phenodin methosulfate (Sigma) dissolved at a concentration of 5 mM in PBS was added to the resulting solution at a volume ratio of 1/200. To each well, the solution so prepared was added in an amount of 50 μl per well. Subsequent to culture for 4 hours, OD was measured at 450 nm by ELISA.
Calculation of 50% Growth Inhibitory Concentration (GI50)
GI50 was calculated by interpolation from a concentration-growth inhibition rate (GIR). GIR was determined in accordance with the following formula: [formula]
For orientation: Formazan colour is commonly taken as a measure of viable cells.

For data set [2], the system named is ovarian cancer and breast cancer. As to conditions: Ann. int. Med. 111, 273, 1989; cited from earlier work.
Data set [3] in a line: Solubility test in water of taxane derivatives (HPLC). As to conditions: for solubility: water; for Dissolved amount (Y): purified water + 0.1N hydrochloric acid (1.05 eq.), room temperature, 2 hours, HPLC; for solubility at 2 h: water + 0.1n hcl. On the procedure: I) Measurement of the solubility of the compound (b)
1) Preparation of a calibration curve
The compound (b) was weighed in an amount of 1.19 mg, to which 1.19 ml of acetonitrile was added so that the compound was dissolved to provide a standard solution. Using a 10 μl portion of the standard solution, the test was conducted by HPLC (operation conditions 1). […] The peak area obtained as an average of three measurements was plotted against the amount (10.0 μg) of the compound (b) per 10 μl, whereby a calibration curve was prepared.
Calibration curve: Y=2.08×10^-5 X [X: peak area, Y: amount (μg) of the compound (b)]
[HPLC operation conditions 1]
Column: Inertsil ODS-2 (5-250), 40 deg.
Mobile phase: 0.01M KH2 PO4 --CH3 CN (3:2)
Detection: Ultraviolet absorption photometer (225 nm), 0.2 aufs.
2) Solubility test of the compound (b)
(§1) The compound (b) was weighed in an amount of 4.0 mg and then suspended in 2.0 ml of purified water. To the resulting suspension, 45 μl (1.05 eq.) of 0.1N hydrochloric acid was added. By ultrasonication, the resulting mixture was formed into a uniform suspension, which was then shaken at room temperature for 2 hours. The thus-obtained mixture was filtered through a membrane filter (0.22 μm), and the filtrate was provided as a test solution. Using the resulting test solution, the test was conducted by HPLC (operation conditions 1). From the area obtained as an average of three measurements, the solubility of the compound (b) was determined.
II) Measurement of the solubility of the compound (j)
The compound (j) was weighed in an amount of 0.94 mg, to which 0.94 ml of acetonitrile was added so that the compound was dissolved to provide a standard solution. Using a 10 μl portion of the standard solution, the test was conducted by HPLC (operation conditions 1). […] The area obtained as an average of three measurements was plotted against the amount (10.0 μg) of the compound (j) per 10 μl, whereby a calibration curve was prepared.
Calibration curve: Y=2.02×10^-5 X [X: peak area, Y: amount (μg) of the compound (j)]
2) Solubility test of the compound (j)
as §1, with “(j)” for “(b)”, “4.24” for “4.0”, “46” for “45”

These results are taken from patent publication US6136808A, “Taxane derivatives” (Kabushiki Kaisha Yakult Honsha, priority 1997, dated 2000).

SMILES strings stand for the structures. Converted amounts (≈) assume the structure as drawn. Read-outs that look alike come from different tables or passages of the source.

What is called GI50 is the concentration that inhibits growth by half. The solubility is how much of the substance goes into solution per volume.

On to `CC(=O)O[C@H]1C(=O)[C@@]2(C)[C@H]([C@H](OC(=O)c3ccccc3)[C@]3(O)C[C@H](OC(=O)[C@H](O)[C@@H](NC(=O)c4ccccc4)c4ccccc4)C(C)=C1C3(C)C)[C@]1(OC(C)=O)CO[C@@H]1C[C@@H]2O` [Taxol, reference compound], for which the “solubility in water (in words)” value in data set [1] is reported as “sparingly soluble in water”. In the data set with KB cells (KB), this molecule displayed a GI50 of 1.3 ng/mL (≈ 0.00152 µM). For the same molecule, in data set [2], the “efficacy against ovarian cancer and breast cancer” value is “high efficacy against ovarian cancer and breast cancer”. Besides, the solubility in data set [3] was 0.4 µg/mL (≈ 0.468 µM).
As for `CCN1CCN(C(=O)OC2C(=O)C3(C)C(O)CC4OCC4(OC(C)=O)C3C(OC(=O)c3ccccc3)C3(O)CC(OC(=O)C(O)C(NC(=O)OC4CCCC4)c4ccccc4)C(C)=C2C3(C)C)CC1` (stereo not drawn) [Compound j, 13-O-(3-Cyclopentyloxycarbonylamino-2-hydroxy-3-phenylpropionyl)-10-O-(4-ethylpiperazinocarbonyl)-10-deacetylbaccatin III], the GI50 in the data set on KB cells (KB) came to 0.58 ng/mL (≈ 0.000604 µM). For the same molecule, in data set [3], the “Dissolved amount (Y)” value turned out to be 9.20 μg/5 μl, the concentration in solution (solubility) came to 1840 µg/mL (≈ 1920 µM) and the solubility at 2 h came to 1840 µg/mL.
`CC(=O)OC12COC1CC(O)C1(C)C(=O)C(OC(=O)N3CCN(C)CC3)C3=C(C)C(OC(=O)C(O)C(NC(=O)c4ccco4)c4ccccc4)CC(O)(C(OC(=O)c4ccccc4)C21)C3(C)C` (stereo not drawn) [Compound b, 13-O-[3-(2-Furoylamino)-2-hydroxy-3-phenylpropionyl]-10-O-(4-methylpiperazinocarbonyl)-10-deacetylbaccatin III]: in the data set with KB cells (KB cells, 3 days, XTT, read-out: GI50), the GI50 amounted to 1.4 ng/mL (≈ 0.00151 µM). In addition, in data set [3], the “Dissolved amount (Y)” value was determined as 9.98 μg/5 μl, the solubility was determined as 2000 µg/mL (≈ 2160 µM) and the solubility at 2 h worked out at 2000 µg/mL.
